Data: US20240390328A1, “PHARMACEUTICAL COMPOSITION CONTAINING AS ACTIVE INGREDIENT COMPOUND CONJUGATED TO G4 STRUCTURES OF CORONAVIRUSES FOR PREVENTION OR TREATMENT OF CORONAVIRUS INFECTIOUS DISEASES” (priority 2020, published 2024)

Assays:
Format in all cases: binding
[1] = tested on: SARS-COV-2 RNA G4, position 644 (NsP1); assay: CD thermal melting analysis, G4 No. 2; conditions: G4 No. 2, position 644, NsP1; 15 μM RNA G4, 30 μM compound
Experimental: (§1) For melting, the samples were heated at 25 to 95° C. at 2° C./min with a data pitch of 0.5° C. CD melting analyses were performed with and without G4-binding compounds. The ratio of RNA: G4-binding compound was set to a molar ratio of 1:2. 15 μM RNA G4 was treated with 30 μM G4-binding compound and incubated at room temperature in a buffer comprising 10 mM Tris-HCl (pH 7.5) and 100 mM KCl for 30 minutes. Ellipticity was measured at 265 nm. Thereafter, data were normalized and plotted in OriginPro 2017 to calculate Tm values.
(§2) In addition, 15 μM RNA G4 was treated with 30 μM compound and incubated, and a CD thermal melting curve of RNA G4 (15 μM) was obtained in the presence or absence of the G4-binding compound. Furthermore, the effect of G4-binding compounds on the stability of SARS-COV-2 G4 was confirmed by measuring the difference in melting temperature (ΔTm). The results are illustrated in FIGS. 6A and 6B.

[2] = tested on: SARS-COV-2 RNA G4, position 1463 (NsP2); assay: CD thermal melting analysis, G4 No. 3; conditions: G4 No. 3, position 1463, NsP2; 15 μM RNA G4, 30 μM compound
Experimental: as §1, §2

[3] = tested on: SARS-COV-2 RNA G4, position 3467 (NsP3); assay: CD thermal melting analysis, G4 No. 6; conditions: G4 No. 6, position 3467, NsP3; 15 μM RNA G4, 30 μM compound
Experimental: as §1, §2

[4] = tested on: SARS-COV-2 RNA G4, position 4162 (NsP3); assay: CD thermal melting analysis, G4 No. 7; conditions: G4 No. 7, position 4162, NsP3; 15 μM RNA G4, 30 μM compound
Experimental: as §1, §2

[5] = tested on: SARS-COV-2 RNA G4, position 4261 (NsP3); assay: CD thermal melting analysis, G4 No. 8; conditions: G4 No. 8, position 4261, NsP3; 15 μM RNA G4, 30 μM compound
Experimental: as §1, §2

[6] = tested on: SARS-COV-2 RNA G4, position 8687 (NsP4); assay: CD thermal melting analysis, G4 No. 9; conditions: G4 No. 9, position 8687, NsP4; 15 μM RNA G4, 30 μM compound
Experimental: as §1, §2

[7] = tested on: SARS-COV-2 RNA G4, position 10261 (NsP5); assay: CD thermal melting analysis, G4 No. 10; conditions: G4 No. 10, position 10261, NsP5; 15 μM RNA G4, 30 μM compound
Experimental: as §1, §2

[8] = tested on: SARS-COV-2 RNA G4, position 13385 (NsP10); assay: CD thermal melting analysis, G4 No. 11; conditions: G4 No. 11, position 13385, NsP10; 15 μM RNA G4, 30 μM compound
Experimental: as §1, §2

[9] = tested on: SARS-COV-2 RNA G4, position 14947 (NsP12); assay: CD thermal melting analysis, G4 No. 12; conditions: G4 No. 12, position 14947, NsP12; 15 μM RNA G4, 30 μM compound
Experimental: as §1, §2

[10] = tested on: SARS-COV-2 RNA G4, position 15448 (NsP12); assay: CD thermal melting analysis, G4 No. 14; conditions: G4 No. 14, position 15448, NsP12; 15 μM RNA G4, 30 μM compound
Experimental: as §1, §2

[11] = tested on: SARS-COV-2 RNA G4, position 18296 (NsP12); assay: CD thermal melting analysis, G4 No. 15; conditions: G4 No. 15, position 18296, NsP12; 15 μM RNA G4, 30 μM compound
Experimental: as §1, §2

[12] = tested on: SARS-COV-2 RNA G4, position 22316 (Surface glycoprotein); assay: CD thermal melting analysis, G4 No. 16; conditions: G4 No. 16, position 22316, Surface glycoprotein; 15 μM RNA G4, 30 μM compound
Experimental: as §1, §2

[13] = tested on: SARS-COV-2 RNA G4, position 24268 (Surface glycoprotein); assay: CD thermal melting analysis, G4 No. 18; conditions: G4 No. 18, position 24268, Surface glycoprotein; 15 μM RNA G4, 30 μM compound
Experimental: as §1, §2

[14] = tested on: SARS-COV-2 RNA G4, position 25951 (ORF3a protein); assay: CD thermal melting analysis, G4 No. 20; conditions: G4 No. 20, position 25951, ORF3a protein; 15 μM RNA G4, 30 μM compound
Experimental: as §1, §2

[15] = tested on: SARS-COV-2 RNA G4, position 26746 (Membrane protein); assay: CD thermal melting analysis, G4 No. 21; conditions: G4 No. 21, position 26746, Membrane protein; 15 μM RNA G4, 30 μM compound
Experimental: as §1, §2

[16] = tested on: SARS-COV-2 RNA G4, position 28903 (Nucleocapsid protein); assay: CD thermal melting analysis, G4 No. 23; conditions: G4 No. 23, position 28903, Nucleocapsid protein; 15 μM RNA G4, 30 μM compound
Experimental: as §1, §2

[17] = tested on: SARS-COV-2 RNA G4, position 29123 (Nucleocapsid protein); assay: CD thermal melting analysis, G4 No. 24; conditions: G4 No. 24, position 29123, Nucleocapsid protein; 15 μM RNA G4, 30 μM compound
Experimental: as §1, §2

[18] = tested on: SARS-COV-2 RNA G4, position 29234 (Nucleocapsid protein); assay: CD thermal melting analysis, G4 No. 25; conditions: G4 No. 25, position 29234, Nucleocapsid protein; 15 μM RNA G4, 30 μM compound
Experimental: as §1, §2

SMILES | Tm in ° C. with compound [1] [°C] | ΔTm [1] [°C] | Tm in ° C. with compound [2] [°C] | ΔTm [2] [°C] | Tm in ° C. with compound [3] [°C] | ΔTm [3] [°C] | Tm in ° C. with compound [4] [°C] | ΔTm [4] [°C] | Tm in ° C. with compound [5] [°C] | ΔTm [5] [°C] | Tm in ° C. with compound [6] [°C] | ΔTm [6] [°C] | Tm in ° C. with compound [7] [°C] | ΔTm [7] [°C] | Tm in ° C. with compound [8] [°C] | ΔTm [8] [°C] | Tm in ° C. with compound [9] [°C] | ΔTm [9] [°C] | Tm in ° C. with compound [10] [°C] | ΔTm [10] [°C] | other results
CN1CCC[C@H]1CCNC(=O)c1cn2c3c(c(N4CCC(c5cnccn5)C4)c(F)cc3c1=O)Oc1cc3ccccc3cc1-2 (stereo partly drawn) [CX-3543, 15-fluoro-N-[2-[(2S)-1-methylpyrrolidin-2-yl]ethyl]-18-oxo-14-(3-pyrazin-2-ylpyrrolidin-1-yl)-12-oxa-1-azapentacyclo [11.7.1.0^2,11.0^4,9.0^17,21]henicosa-2,4,6,8, 10, 13 (21), 14,16,19-nonaene-19-carboxamide] | 53.32 | 5.59 | 66.55 | 11.03 | 63.54 | −2.01 | 58.94 | 2.05 | 63.89 | 13.58 | 49.83 | 2.97 | 50.24 | 2.35 | 52.87 | 7.27 | 58.11 | 0.9 | 58.58 | 5.96 | Tm in ° C. with compound [11]: 63.64 °C; ΔTm [11]: 4.81 °C; Tm in ° C. with compound [12]: 49.56 °C; ΔTm [12]: 1.28 °C; Tm in ° C. with compound [13]: 40.42 °C; ΔTm [13]: −0.05 °C; Tm in ° C. with compound [14]: 53.87 °C; ΔTm [14]: 5.13 °C; Tm in ° C. with compound [15]: 59.29 °C; ΔTm [15]: −3.37 °C; Tm in ° C. with compound [16]: 63.45 °C; ΔTm [16]: 6.34 °C; Tm in ° C. with compound [17]: 62.59 °C; ΔTm [17]: 8.19 °C; Tm in ° C. with compound [18]: 58.52 °C; ΔTm [18]: −3.65 °C
NCCOc1cc(C(=O)Nc2cc(OCCN)c3ccccc3n2)nc(C(=O)Nc2cc(OCCN)c3ccccc3n2)c1 [PDS, 4-(2-aminoethoxy)-N2,N6-bis(4-(2-aminoethoxy)quinolin-2-yl)pyridine-2,6-dicarboxamide] | 70.59 | 22.86 | 60.04 | 4.52 | 88.65 | 23.1 | 56.03 | −0.86 | 79.18 | 28.87 | 84.44 | 37.58 | 60.66 | 12.77 | 63.07 | 17.47 | 82.16 | 24.95 | 56.5 | 3.88 | Tm in ° C. with compound [11]: 82.4 °C; ΔTm [11]: 23.57 °C; Tm in ° C. with compound [12]: 55.62 °C; ΔTm [12]: 7.34 °C; Tm in ° C. with compound [13]: 46.11 °C; ΔTm [13]: 5.64 °C; Tm in ° C. with compound [14]: 92.26 °C; ΔTm [14]: 43.52 °C; Tm in ° C. with compound [15]: 68.77 °C; ΔTm [15]: 6.11 °C; Tm in ° C. with compound [16]: 60.46 °C; ΔTm [16]: 3.35 °C; Tm in ° C. with compound [17]: 73.83 °C; ΔTm [17]: 19.43 °C; Tm in ° C. with compound [18]: 80.2 °C; ΔTm [18]: 18.03 °C
